From patent publication US20230373974A1, “MODULATORS OF CYSTIC FIBROSIS TRANSMEMBRANE CONDUCTANCE REGULATOR” (VERTEX PHARMACEUTICALS INCORPORATED, priority 2020, published 2023)

Molecular target: T1, F508del in NIH 3T3 cells (Homo sapiens, UniProt P13569, DEL508-508)
T1 construct: expressed in transfected cells
Assay: 3T3 assay: membrane potential optical assay for F508del correction
Type: cell-based, mouse
Settings: F508del NIH 3T3 cells; for EC50: incubated with compound 18-24 hours at 37° C., forskolin activation; for Emax: NIH3T3, efficacy compared to lumacaftor in combination with acutely added 300 nM Ivacaftor, read-out: 3T3 Max Activity (%)
Text: Membrane Potential Optical Methods for Assaying F508del Modulation Properties of Compounds The assay utilizes fluorescent voltage sensing dyes to measure changes in membrane potential using a fluorescent plate reader (e.g., FLIPR III, Molecular Devices, Inc.) as a readout for increase in functional F508del in NIH 3T3 cells. The driving force for the response is the creation of a chloride ion gradient in conjunction with channel activation by a single liquid addition step after the cells have previously been treated with compounds and subsequently loaded with a voltage sensing dye. 2. Identification of Corrector Compounds To identify correctors of F508del, a single-addition HTS assay format was developed. This HTS assay utilizes fluorescent voltage sensing dyes to measure changes in membrane potential on the FLIPR III as a measurement for increase in gating (conductance) of F508del in F508del NIH 3T3 cells. The F508del NIH 3T3 cell cultures were incubated with the corrector compounds at a range of concentrations for 18-24 hours at 37° C., and subsequently loaded with a redistribution dye. The driving force for the response is a Cl^− ion gradient in conjunction with channel activation with forskolin in a single liquid addition step using a fluorescent plate reader such as FLIPR III. […] Solutions […] Chloride-free bath solution: Chloride salts in Bath Solution #1 (above) are substituted with gluconate salts. 4. Cell Culture NIH3T3 mouse fibroblasts stably expressing F508del are used for optical measurements of membrane potential. The cells are maintained at 37° C. in 5% CO2 and 90% humidity in Dulbecco's modified Eagle's medium supplemented with 2 mM glutamine, 10% fetal bovine serum, 1×NEAA, b-ME, 1×pen/strep, and 25 mM HEPES in 175 cm^2 culture flasks. For all optical assays, the cells were seeded at ˜20,000/well in 384-well Matrigel-coated plates. For the correction assays, the cells are cultured at 37° C. with and without compounds for 16-24 hours.

T1 sequence (P13569 with tags, fused parts or gaps DEL508-508): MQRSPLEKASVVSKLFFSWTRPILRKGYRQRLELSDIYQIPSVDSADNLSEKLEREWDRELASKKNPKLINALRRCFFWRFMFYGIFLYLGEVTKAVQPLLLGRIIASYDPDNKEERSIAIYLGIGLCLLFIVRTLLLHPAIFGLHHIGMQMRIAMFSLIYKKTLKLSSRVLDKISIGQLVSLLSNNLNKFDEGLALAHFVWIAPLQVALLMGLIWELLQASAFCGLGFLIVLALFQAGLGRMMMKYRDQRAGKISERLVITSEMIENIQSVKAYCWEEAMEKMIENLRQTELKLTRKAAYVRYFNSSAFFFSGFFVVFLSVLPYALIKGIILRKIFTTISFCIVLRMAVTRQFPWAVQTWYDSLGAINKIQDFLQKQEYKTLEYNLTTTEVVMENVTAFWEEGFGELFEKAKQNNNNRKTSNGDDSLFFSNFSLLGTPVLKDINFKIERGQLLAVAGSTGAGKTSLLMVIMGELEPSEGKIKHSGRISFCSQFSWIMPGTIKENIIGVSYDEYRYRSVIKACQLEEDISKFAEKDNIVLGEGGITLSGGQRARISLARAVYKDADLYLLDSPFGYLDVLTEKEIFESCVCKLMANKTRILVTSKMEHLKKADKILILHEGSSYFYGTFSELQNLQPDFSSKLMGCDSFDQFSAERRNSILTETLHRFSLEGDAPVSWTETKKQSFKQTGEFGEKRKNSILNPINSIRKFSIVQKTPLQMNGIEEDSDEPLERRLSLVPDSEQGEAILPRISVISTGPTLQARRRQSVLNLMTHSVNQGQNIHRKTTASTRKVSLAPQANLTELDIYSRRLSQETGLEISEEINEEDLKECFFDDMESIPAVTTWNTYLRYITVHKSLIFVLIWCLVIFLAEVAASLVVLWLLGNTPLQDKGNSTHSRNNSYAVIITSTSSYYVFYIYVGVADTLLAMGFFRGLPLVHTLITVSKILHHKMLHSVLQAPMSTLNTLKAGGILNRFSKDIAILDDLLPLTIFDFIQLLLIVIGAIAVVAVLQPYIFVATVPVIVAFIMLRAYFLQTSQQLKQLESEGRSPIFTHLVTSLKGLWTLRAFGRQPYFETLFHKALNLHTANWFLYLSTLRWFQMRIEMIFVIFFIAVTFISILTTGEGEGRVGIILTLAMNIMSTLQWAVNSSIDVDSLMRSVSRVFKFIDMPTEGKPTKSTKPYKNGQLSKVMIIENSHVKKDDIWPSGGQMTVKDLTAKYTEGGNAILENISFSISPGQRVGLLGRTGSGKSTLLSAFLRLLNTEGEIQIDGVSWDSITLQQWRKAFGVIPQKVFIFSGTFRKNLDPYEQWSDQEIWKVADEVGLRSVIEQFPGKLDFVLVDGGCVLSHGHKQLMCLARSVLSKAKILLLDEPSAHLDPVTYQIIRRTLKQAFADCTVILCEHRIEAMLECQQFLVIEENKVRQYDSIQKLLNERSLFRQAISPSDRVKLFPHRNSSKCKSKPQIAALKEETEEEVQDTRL

Row | EC50 | Emax | Structure (SMILES)
1 | 1 to 3 µM | > 60% | Cc1cc(C)c(-n2nc(NS(=O)(=O)c3cn[nH]c3)c3ccc(C(C)(C)C)nc32)c(C)c1 [Compound 35, N-[6-tert-butyl-1-(2,4,6-trimethylphenyl)pyrazolo[3,4-b]pyridin-3-yl]-1H-pyrazole-4-sulfonamide]
2 | < 1 µM | 30 to 60% | Cc1cc(C)cc(-n2nc(NS(=O)(=O)c3ccccc3)c3cc(Br)cnc32)c1 [Compound 48]
3 | – | < 30% | Cn1c(NS(=O)(=O)c2ccccc2)nc2ccccc21 [Compound 86]
4 | 3 to 30 µM | – | O=S(=O)(NC1=Nc2ccccc2C(c2ccccc2)S1)c1ccccc1 (centres unmarked) [Compound 9, N-(4-phenyl-4H-3,1-benzothiazin-2-yl)benzenesulfonamide]
5 | – | 30 to 60% | Cc1cc(C)c(-n2nc(NS(=O)(=O)c3ccccc3)c3cccnc32)c(C)c1 [Compound 52]
6 | 1 to 3 µM | 30 to 60% | Cc1ccccc1-n1nc(NS(=O)(=O)c2ccccc2)c2ccc(C(C)C)cc21 [Compound 73, N-[6-isopropyl-1-(o-tolyl)indazol-3-yl]benzenesulfonamide]
7 | < 1 µM | 30 to 60% | Cc1ccc(-n2nc(NS(=O)(=O)c3ccccc3)c3ccc(C(C)(C)C)nc32)c(C)c1 [Compound 43]
8 | 1 to 3 µM | – | Cc1cc(C)cc(-c2nc(NS(=O)(=O)c3ccccc3)nc3ccccc23)c1 [Compound 28, N-[4-(3,5-Dimethylphenyl)quinazolin-2-yl]benzenesulfonamide]
9 | < 1 µM | 30 to 60% | C=C(C)c1cnc2c(c1)c(NS(=O)(=O)c1ccccc1)nn2-c1cc(C)cc(C)c1 [Compound 47]
10 | – | < 30% | CC(C)(C)c1ccc2nc(NS(=O)(=O)c3ccccc3)[nH]c2c1 [Compound 93]
11 | – | < 30% | Cc1cc(C)c(-n2nc(NS(=O)(=O)c3ccccc3N)c3ccc(C(C)(C)C)nc32)c(C)c1 [Compound 67]
12 | 1 to 3 µM | > 60% | C=C(C)c1ccc2c(NS(=O)(=O)c3ccccc3)nn(-c3ccccc3C)c2c1 [Compound 72, N-[6-isopropenyl-1-(o-tolyl)indazol-3-yl]benzenesulfonamide]
13 | < 1 µM | > 60% | Cc1ccccc1Oc1nc(NS(=O)(=O)c2cnn(C)c2)nc2c1CCc1ccccc1-2 [Compound 7]
14 | 1 to 3 µM | – | CC(C)n1nc(NS(=O)(=O)c2ccccc2)c2ccc(C(C)(C)C)nc21 [Compound 39, N-(6-tert-butyl-1-isopropyl-pyrazolo[3,4-b]pyridin-3-yl)benzenesulfonamide]
15 | – | < 30% | CC(C)N1CCc2nc(NS(=O)(=O)c3ccccc3)sc2C1 [Compound 22]
16 | – | < 30% | Cc1cc(C)c(Oc2cc(C(C)(C)C)cc3nnc(NS(=O)(=O)c4cccc(N)c4)n23)c(C)c1 [Compound 94]
17 | – | < 30% | Cc1ccc(-c2nc(NS(=O)(=O)c3ccccc3)c3ccc(C(C)(C)C)nc3n2)c(C)c1 [Compound 18]
18 | 3 to 30 µM | > 60% | O=S(=O)(Nc1nc2c(c(Oc3ccccc3)n1)CCC2)c1ccccc1 [Compound 6, N-(4-phenoxy-6,7-dihydro-5H-cyclopenta[d]pyrimidin-2-yl)benzenesulfonamide]
19 | 1 to 3 µM | 30 to 60% | Cc1ccc(Oc2nc3ccccc3nc2NS(=O)(=O)c2ccccc2)c(C)c1 [Compound 14]

Row | EC50 | Emax | Structure (SMILES)
20 | – | < 30% | Cc1cc(C)c(-n2nc(NS(=O)(=O)c3ccc(Cl)cc3)c3ccc(C(C)(C)C)nc32)c(C)c1 [Compound 65]
21 | < 1 µM | – | Cc1cc(C)cc(-c2nc(NS(=O)(=O)c3ccccc3)cc3ccccc23)c1 [Compound 77, N-[1-(3,5-dimethylphenyl)-3-isoquinolyl]benzenesulfonamide]
22 | – | < 30% | Cc1cc(C)cc(-c2cc(NS(=O)(=O)c3ccccc3)nc3ccccc23)c1 [Compound 78, N-[4-(3,5-Dimethylphenyl)-2-quinolyl]benzenesulfonamide]
23 | 3 to 30 µM | 30 to 60% | O=S(=O)(Nc1nc2c(s1)Cc1ccccc1-2)c1ccccc1 [Compound 27]
24 | 1 to 3 µM | 30 to 60% | Cc1cc(C)c(-n2nc(NS(=O)(=O)c3ncc[nH]3)c3ccc(C(C)(C)C)nc32)c(C)c1 [Compound 56]
25 | 1 to 3 µM | > 60% | Cc1ccccc1Oc1nc(NS(=O)(=O)c2cnn(C)c2)nc2c1CC(C)(C)CC2 [Compound 3, N-[6,6-Dimethyl-4-(2-methylphenoxy)-7,8-dihydro-5H-quinazolin-2-yl]-1-methyl-pyrazole-4-sulfonamide]
26 | 3 to 30 µM | > 60% | O=S(=O)(Nc1nc2c(c(Oc3ccccc3)n1)CCCC2)c1ccccc1 [Compound 4, N-(4-phenoxy-5,6,7,8-tetrahydroquinazolin-2-yl)benzenesulfonamide]
27 | 3 to 30 µM | 30 to 60% | Cc1ccccc1Oc1nc2ccccc2nc1NS(=O)(=O)c1ccccc1 [Compound 15]
28 | – | < 30% | O=S(=O)(Nc1ccc2cc[nH]c2n1)c1ccccc1 [Compound 82]
29 | – | < 30% | CC1CCc2nc(NS(=O)(=O)c3ccccc3)sc2C1 (centres unmarked) [Compound 24]
30 | – | < 30% | CCn1nc(NS(=O)(=O)c2ccccc2)c2ccccc21 [Compound 74]
31 | 3 to 30 µM | 30 to 60% | O=S(=O)(Nc1nc2ccccc2nc1N1CCCCC1)c1ccccc1 [Compound 12, N-[3-(1-piperidyl)quinoxalin-2-yl]benzenesulfonamide]
32 | < 1 µM | 30 to 60% | CC(C)(C)c1ccc2c(NS(=O)(=O)c3ccccc3)nn(-c3cccc(Cl)c3)c2n1 [Compound 38, N-[6-tert-butyl-1-(3-chlorophenyl)pyrazolo[3,4-b]pyridin-3-yl]benzenesulfonamide]
33 | < 1 µM | 30 to 60% | COc1ccc(OC)c(S(=O)(=O)Nc2nn(-c3c(C)cc(C)cc3C)c3nc(C(C)(C)C)ccc23)c1 [Compound 58]
34 | < 1 µM | – | Cc1cc(C)cc(-c2nc(NS(=O)(=O)c3ccccc3)nc3nc(C(C)(C)C)ccc23)c1 [Compound 30, N-[7-tert-butyl-4-(3,5-dimethylphenyl)pyrido[2,3-d]pyrimidin-2-yl]benzenesulfonamide]
35 | – | < 30% | Cc1cccc(S(=O)(=O)Nc2nn(-c3c(C)cc(C)cc3C)c3nc(C(C)(C)C)ccc23)c1 [Compound 63]
36 | 3 to 30 µM | 30 to 60% | Cc1ccccc1Oc1nc(NS(=O)(=O)c2cnn(C)c2)nc2c1CCCC2(C)C [Compound 5, N-[8,8-Dimethyl-4-(2-methylphenoxy)-6,7-dihydro-5H-quinazolin-2-yl]-1-methyl-pyrazole-4-sulfonamide]
37 | – | < 30% | CC(C)(C)C1CCc2nc(NS(=O)(=O)c3ccccc3)ncc2C1 (centres unmarked) [Compound 84]
38 | – | < 30% | Cc1ccc(-n2ncc3c2CC(C)(C)CC3NS(=O)(=O)c2ccccc2)cc1 (centres unmarked) [Compound 83]
